Assay results reported in ChEMBL document CHEMBL3751723, “Discovery of highly potent dual EP(2) and EP(3) agonists with subtype selectivity” (Bioorg Med Chem Lett, 2016).

Tests used:
[1] = molecular target: Prostaglandin E2 receptor EP4 subtype (Homo sapiens, UniProt P35408); experiment: Agonist activity at human EP4 receptor
[2] = molecular target: T1, Prostaglandin E2 receptor EP3 subtype (Homo sapiens, UniProt P43115); experiment: Agonist activity at human EP3 receptor
T1 sequence (P43115 whole entry): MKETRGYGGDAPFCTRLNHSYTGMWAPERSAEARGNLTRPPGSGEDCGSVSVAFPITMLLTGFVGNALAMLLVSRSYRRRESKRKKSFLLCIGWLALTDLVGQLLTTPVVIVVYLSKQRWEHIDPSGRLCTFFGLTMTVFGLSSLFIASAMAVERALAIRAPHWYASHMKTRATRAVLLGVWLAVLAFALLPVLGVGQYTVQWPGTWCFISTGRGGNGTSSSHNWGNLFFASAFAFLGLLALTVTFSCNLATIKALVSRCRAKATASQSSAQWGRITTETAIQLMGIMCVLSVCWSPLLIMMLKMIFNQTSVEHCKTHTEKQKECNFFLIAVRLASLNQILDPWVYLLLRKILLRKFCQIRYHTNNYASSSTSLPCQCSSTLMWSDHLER

[3] = molecular target: Prostaglandin E2 receptor EP2 subtype (Homo sapiens, UniProt P43116); experiment: Agonist activity at human EP2 receptor
Sequence of Prostaglandin E2 receptor EP2 subtype (P43116 whole entry): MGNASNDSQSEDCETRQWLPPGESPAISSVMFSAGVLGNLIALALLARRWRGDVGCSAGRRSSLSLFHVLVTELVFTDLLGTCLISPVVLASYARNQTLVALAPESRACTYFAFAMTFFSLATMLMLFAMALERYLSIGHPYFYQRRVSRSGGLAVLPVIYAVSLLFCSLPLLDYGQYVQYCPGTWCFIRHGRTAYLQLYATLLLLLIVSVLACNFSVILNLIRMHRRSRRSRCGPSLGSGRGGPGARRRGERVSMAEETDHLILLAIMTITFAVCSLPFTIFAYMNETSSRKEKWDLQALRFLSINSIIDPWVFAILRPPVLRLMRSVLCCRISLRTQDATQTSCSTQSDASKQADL

[4] = molecular target: T2, Prostaglandin E2 receptor EP1 subtype (Homo sapiens, UniProt P34995); experiment: Binding affinity to human EP1 receptor
T2 sequence (P34995 whole entry): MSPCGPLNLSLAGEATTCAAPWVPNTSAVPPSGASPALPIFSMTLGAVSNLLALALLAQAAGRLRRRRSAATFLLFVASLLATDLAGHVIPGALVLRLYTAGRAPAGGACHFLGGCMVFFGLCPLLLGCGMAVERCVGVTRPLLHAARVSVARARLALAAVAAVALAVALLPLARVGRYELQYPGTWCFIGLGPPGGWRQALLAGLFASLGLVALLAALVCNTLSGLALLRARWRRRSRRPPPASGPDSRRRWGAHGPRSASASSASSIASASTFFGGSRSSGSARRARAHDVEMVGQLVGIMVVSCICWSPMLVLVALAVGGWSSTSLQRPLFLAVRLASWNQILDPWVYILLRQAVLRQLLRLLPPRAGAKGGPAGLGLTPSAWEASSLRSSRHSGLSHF

[5] = Oral bioavailability in rat at 1 mg/kg; type: ADME, organism-based; details: in vivo
[6] = AUC in rat at 1 mg/kg, po; type: ADME, organism-based; details: in vivo
[7] = Clearance in rat at 0.01 mg/kg, iv; type: ADME, organism-based; details: in vivo
[8] = Half life in rat at 0.01 mg/kg, iv; type: ADME, organism-based; details: in vivo

Sequence of Prostaglandin E2 receptor EP4 subtype (P35408 whole entry): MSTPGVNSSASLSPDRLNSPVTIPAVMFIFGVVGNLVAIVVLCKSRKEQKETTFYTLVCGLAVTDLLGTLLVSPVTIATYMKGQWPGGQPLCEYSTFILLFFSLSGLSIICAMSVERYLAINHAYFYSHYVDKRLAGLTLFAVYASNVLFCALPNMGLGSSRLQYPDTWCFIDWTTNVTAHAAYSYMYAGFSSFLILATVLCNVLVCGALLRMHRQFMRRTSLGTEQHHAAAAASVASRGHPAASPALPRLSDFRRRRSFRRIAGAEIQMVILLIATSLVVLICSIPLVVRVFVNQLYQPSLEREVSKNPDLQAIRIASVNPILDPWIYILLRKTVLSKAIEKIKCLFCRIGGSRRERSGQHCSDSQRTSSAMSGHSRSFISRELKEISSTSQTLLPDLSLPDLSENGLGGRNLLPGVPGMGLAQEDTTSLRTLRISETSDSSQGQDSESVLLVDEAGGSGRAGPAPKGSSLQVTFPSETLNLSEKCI

| Compound | EC50 [1] | EC50 [2] | EC50 [3] | Ki [4] | bioavailability [5] | AUC [6] | clearance [7] | half-life [8] |
| --- | --- | --- | --- | --- | --- | --- | --- | --- |
| CCOCCC1([C@H](O)/C=C/[C@H]2COC(=O)N2CCSc2nc(C(=O)O)cs2)CCC1 | 0.745 µM | 2.61 µM | 0.029 µM | 8.42 µM | – | – | – | – |
| CC(C)(CCCCF)[C@H](O)/C=C/[C@H]1COC(=O)N1CCSc1nc(C(=O)O)cs1 | 1.22 µM | 0.0047 µM | 0.0057 µM | 0.431 µM | – | – | – | – |
| O=C(O)c1csc(SCCN2C(=O)OC[C@@H]2/C=C/[C@@H](O)C2(CCc3ccccc3)CCC2)n1 | 0.465 µM | 0.027 µM | 0.16 µM | 0.802 µM | – | – | – | – |
| COCCCC1([C@H](O)/C=C/[C@H]2COC(=O)N2CCSc2nc(C(=O)O)cs2)CCC1 | 0.705 µM | 0.025 µM | 0.018 µM | > 10 µM | – | – | – | – |
| CC(C)(C)CCC1([C@H](O)/C=C/[C@H]2COC(=O)N2CCSc2nc(C(=O)O)cs2)CCC1 | 4.71 µM | 0.0067 µM | 3.7 µM | 0.149 µM | – | – | – | – |
| O=C(O)c1csc(SCCN2C(=O)OC[C@@H]2/C=C/[C@@H](O)C2(CCC3CCCCC3)CCC2)n1 | 8.39 µM | 0.0074 µM | 0.06 µM | 1.33 µM | – | – | – | – |

The next compounds have a lower EC50 [1] than those just listed; values first:

| EC50 [1] | EC50 [2] | EC50 [3] | Ki [4] | bioavailability [5] | AUC [6] | clearance [7] | half-life [8] | Compound |
| --- | --- | --- | --- | --- | --- | --- | --- | --- |
| 0.24 µM | 0.018 µM | 0.021 µM | 0.089 µM | – | – | – | – | CC#CCC1([C@H](O)/C=C/[C@H]2COC(=O)N2CCSc2nc(C(=O)O)cs2)CCC1 |
| 0.003 µM | 0.31 µM | 0.00039 µM | – | – | – | – | – | CCCC[C@H](C)C[C@H](O)/C=C/[C@H]1CCC(=O)N1CCSc1nc(C(=O)O)cs1 |
| 0.0042 µM | 0.0084 µM | 0.00091 µM | – | – | – | – | – | CCCCC(C)(C)[C@H](O)/C=C/[C@H]1CCC(=O)N1CCSc1nc(C(=O)O)cs1 |
| 0.073 µM | 0.0039 µM | 0.0029 µM | 0.22 µM | – | – | – | – | CCCCC1([C@H](O)/C=C/[C@H]2COC(=O)N2CCSc2nc(C(=O)O)cs2)CCC1 |
| 0.32 µM | 0.05 µM | 0.0074 µM | 0.12 µM | – | – | – | – | CCCCC(C)(C)[C@H](O)/C=C/[C@H]1COC(=O)N1CCSc1nc(C(=O)O)cs1 |
| 0.195 µM | 0.01 µM | 0.0029 µM | 1.08 µM | 2.5% | 41 ng·h/mL | 9.5 mL/min/kg | 4.4 h | O=C(O)c1csc(SCCN2C(=O)OC[C@@H]2/C=C/[C@@H](O)C2(CCCCF)CCC2)n1 |
